Data on 33 compounds can be found in US11524940B1, “Inhibitors of cysteine proteases and methods of use thereof” (priority 2020, dated 2022).

pEC50: −log10 of the molar value.

The target in this assay is 229E Mpro (Human coronavirus 229E (HCoV-229E), UniProt P0C6X1). The experiment in a line: 229E Mpro activity. To be noted: read-out: 229E Mpro EC50. It is filed as biochemical.
Sequence of 229E Mpro (P0C6X1 2966-3267 limits assumed): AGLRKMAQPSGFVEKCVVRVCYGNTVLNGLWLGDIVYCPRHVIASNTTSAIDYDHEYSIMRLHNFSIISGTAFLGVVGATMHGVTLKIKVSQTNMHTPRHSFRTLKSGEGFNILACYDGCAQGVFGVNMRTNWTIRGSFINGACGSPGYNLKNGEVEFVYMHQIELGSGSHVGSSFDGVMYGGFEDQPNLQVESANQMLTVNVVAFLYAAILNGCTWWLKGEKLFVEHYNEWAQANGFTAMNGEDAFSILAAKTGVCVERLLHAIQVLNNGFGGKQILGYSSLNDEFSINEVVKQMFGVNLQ
Experimental: Compounds are assayed using standard methods to assess compound activity and IC50. […] The assay buffer contains 20 mM of Tris-HCl (pH 7.3), 100 mM of NaCl, 1 mM of EDTA, 5mM of TCEP and 0.1% BSA.
By pEC50 is commonly meant the EC50 on a negative log10 scale, so that one unit is a factor of ten. Take `COc1ccc(F)c2[nH]c(C(=O)N[C@@H](CC3CC3)C(=O)N[C@H](C#N)C[C@@H]3CCCNC3=O)cc12` [Compound 820, N-((S)-1-(((S)-1-cyano-2-((S)-2-oxopiperidin-3-yl)ethyl)amino)-3-cyclopropyl-1-oxopropan-2-yl)-7-fluoro-4-methoxy-1H-indole-2-carboxamide]: the pEC50 is above 5.70. The same measure for `COc1cc(Cl)c2[nH]c(C(=O)N[C@@H](CC3CC3)C(=O)N[C@H](C#N)C[C@@H]3CCNC3=O)cc2c1` [Compound 695, 7-chloro-N-[(1S)-2-[[(1S)-1-cyano-2-[(3S)-2-oxopyrrolidin-3-yl]ethyl]amino]-1-(cyclopropylmethyl)-2-oxo-ethyl]-5-methoxy-1H-indole-2-carboxamide]: above 5.70; for `COc1cccc2[nH]c(C(=O)N[C@@H](CC3CC3)C(=O)N[C@H](C#N)C[C@@H]3CCCNC3=O)cc12` (single isomer, unassigned) [491 (Isomer 1)]: above 5.70. The value for `COc1cccc2[nH]c(C(=O)N3C[C@H](C(F)(F)F)C[C@H]3C(=O)N[C@H](C#N)C[C@@H]3CCNC3=O)cc12` [Compound 549, (2S,4R)-N-[(1S)-1-cyano-2-[(3S)-2-oxopyrrolidin-3-yl]ethyl]-1-(4-methoxy-1H-indole-2-carbonyl)-4-(trifluoromethyl)pyrrolidine-2-carboxamide] was above 5.70. As to `CC(C)(C)OC(=O)N1CCCCC12CCN(C(CC1CC1)C(=O)N[C@H](C#N)C[C@@H]1CCNC1=O)C2=O` (single isomer, unassigned) [473 (Isomer 2)], the pEC50 is below 4.52. The value for `N#C[C@H](C[C@@H]1CCCNC1=O)NC(=O)[C@H](CC1CC1)NC(=O)c1cc2cc(F)cc(Cl)c2[nH]1` [Compound 830, 7-chloro-N-((S)-1-(((S)-1-cyano-2-((S)-2-oxopiperidin-3-yl)ethyl)amino)-3-cyclopropyl-1-oxopropan-2-yl)-5-fluoro-1H-indole-2-carboxamide] was above 5.70. The same measure for `N#C[C@H](C[C@@H]1CCCNC1=O)NC(=O)[C@H](CC1CC1)NC(=O)c1cc2c(C(F)(F)F)cccc2[nH]1` [Compound 856, N-((S)-1-(((S)-1-cyano-2-((S)-2-oxopiperidin-3-yl)ethyl)amino)-3-cyclopropyl-1-oxopropan-2-yl)-4-(trifluoromethyl)-1H-indole-2-carboxamide]: above 5.70; for `N#C[C@H](C[C@@H]1CCNC1=O)NC(=O)C1CC2(CCCCC2)CN1C(=O)c1cc2ccc(Cl)c(Cl)c2[nH]1` (single isomer, unassigned) [986 (Isomer 1)]: above 5.70; for `COc1cccc2[nH]c(C(=O)N[C@@H](CC(C)C)C(=O)NC(C#N)CC3CC(=O)Nc4ccccc43)cc12` (mixture of isomers) [Compound 249, N-[(1S)-1-[[1-cyano-2-(2-oxo-3,4-dihydro-1H-quinolin-4-yl)ethyl]carbamoyl]-3-methyl-butyl]-4-methoxy-1H-indole-2-carboxamide]: below 4.52. On to `CCO[C@@H]1C[C@@H](C(=O)N[C@H](C#N)C[C@@H]2CCNC2=O)N(C(=O)c2cc3c(OC)cccc3[nH]2)C1` [Compound 409, (2S,4R)-N-[(1S)-1-cyano-2-[(3S)-2-oxopyrrolidin-3-yl]ethyl]-4-ethoxy-1-(4-methoxy-1H-indole-2-carbonyl)pyrrolidine-2-carboxamide], for which the pEC50 was below 4.52. In the case of `COc1cccc2[nH]c(C(=O)N[C@@H](CC(C)C)C(=O)N[C@@H](C[C@@H]3CCNC3=O)C(C#N)OC(=O)NC(C)C)cc12` (stereo partly drawn) [Compound 583], the pEC50 was below 4.52. The value for `N#C[C@H](C[C@@H]1CCCNC1=O)NC(=O)[C@H](CC1CC1)NC(=O)c1cc2ccc(Cl)c(Cl)c2[nH]1` [Compound 727, 6,7-dichloro-N-[(1S)-2-[[(1S)-1-cyano-2-[(3S)-2-oxo-3-piperidyl]ethyl]amino]-1-(cyclopropylmethyl)-2-oxo-ethyl]-1H-indole-2-carboxamide] was above 5.70; that for `COCCOCCOc1cccc2[nH]c(C(=O)N[C@@H](CC(C)(C)C)C(=O)N[C@H](C#N)C[C@@H]3CCCNC3=O)cc12` [Compound 876, N-[1-[[1-cyano-2-[(3S)-2-oxo-3-piperidyl]ethyl]carbamoyl]-3,3-dimethyl-butyl]-4-[2-(2-methoxyethoxy)ethoxy]-1H-indole-2-carboxamide] was above 5.70. The same measure for `COc1cccc2[nH]c(C(=O)N3CC4(CCCC4)C[C@H]3C(=O)N[C@H](C#N)C[C@@H]3CCNC3=O)cc12` (single isomer, unassigned) [401 (Isomer 1)]: above 5.70; for `N#C[C@H](C[C@@H]1CCCNC1=O)NC(=O)[C@H](CC1CC1)NC(=O)c1cc2cnccc2[nH]1` [Compound 625, N-((S)-1-(((S)-1-cyano-2-((S)-2-oxopiperidin-3-yl)ethyl)amino)-3-cyclopropyl-1-oxopropan-2-yl)-1H-pyrrolo[3,2-c]pyridine-2-carboxamide]: above 5.70. The same measure for `N#C[C@H](C[C@@H]1CCNC1=O)NC(=O)[C@@H]1CS[C@H]2CC[C@H](N)C(=O)N21` [Compound 479, (3R,6S)-6-amino-N-[(1S)-1-cyano-2-[(3S)-2-oxopyrrolidin-3-yl]ethyl]-5-oxo-2,3,6,7,8,8a-hexahydrothiazolo[3,2-a]pyridine-3-carboxamide]: 4.52 to 5.00; for `N#C[C@H](C[C@@H]1CCCNC1=O)NC(=O)[C@H](CC1CC1)NC(=O)c1cc2c(F)ccc(Br)c2[nH]1` [Compound 854]: above 5.70; for `COc1cccc2[nH]c(C(=O)N[C@@H](CC(C)C)C(=O)N[C@@H](C[C@@H]3CCNC3=O)C(C#N)NCC(=O)O)cc12` (single isomer, unassigned) [653 (Isomer 1)]: above 5.70. Consider `COc1cccc2[nH]c(C(=O)N[C@@H](CC3CC3)C(=O)N[C@@H](C#N)C[C@@H]3CCCNC3=O)cc12` [Compound 491B], for which the pEC50 is 4.52 to 5.00.

On to `N#C[C@H](C[C@@H]1CCCNC1=O)NC(=O)[C@H](CC1CC1)NC(=O)c1cc2cc(F)cc(Br)c2[nH]1` [Compound 852, 7-bromo-N-((S)-1-(((S)-1-cyano-2-((S)-2-oxopiperidin-3-yl)ethyl)amino)-3-cyclopropyl-1-oxopropan-2-yl)-5-fluoro-1H-indole-2-carboxamide], for which the pEC50 was above 5.70.

As for `COCCOCCOc1cccc2[nH]c(C(=O)NC(CC(C)(C)C)C(=O)NC(C#N)CC3CCCNC3=O)cc12` (single isomer, unassigned) [875 (Isomer 1)], the pEC50 was above 5.70. For the compound `N#C[C@H](C[C@@H]1CCNC1=O)NC(=O)[C@@H]1CS[C@H]2CC[C@H](NC(=O)OCc3ccccc3)C(=O)N21` [Compound 457, Benzyl((3R,6S,8aS)-3-(((S)-1-cyano-2-((S)-2-oxopyrrolidin-3-yl)ethyl)carbamoyl)-5-oxohexahydro-2H-thiazolo[3,2-a]pyridin-6-yl)carbamate], the pEC50 is below 4.52. The same measure for `COc1cccc2[nH]c(C(=O)N3C[C@H](c4ccccc4)C[C@H]3C(=O)N[C@@H](C[C@@H]3CCNC3=O)C(O)C#N)cc12` (single isomer, unassigned) [345 (Isomer 1)]: above 5.70. Consider `COc1cccc2[nH]c(C(=O)N3CC4(CCCCC4)CC3C(=O)N[C@H](C#N)C[C@@H]3CCCNC3=O)cc12` (single isomer, unassigned) [603a (Isomer 1)], for which the pEC50 is above 5.70.

For `COc1cccc2[nH]c(C(=O)N[C@@H](CC(C)C)C(=O)N[C@@H](C[C@@H]3CCNC3=O)C(=O)CO)cc12` [Compound 741, N-[(1S)-1-[[(1S)-3-hydroxy-2-oxo-1-[[(3S)-2-oxopyrrolidin-3-yl]methyl]propyl]carbamoyl]-3-methyl-butyl]-4-methoxy-1H-indole-2-carboxamide], the pEC50 is above 5.70. For the compound `N#C[C@H](C[C@@H]1CCCNC1=O)NC(=O)[C@H](CC1CC1)NC(=O)c1cc2ccc(F)c(Cl)c2[nH]1` [Compound 828, 7-chloro-N-[(1S)-2-[[(1S)-1-cyano-2-[(3S)-2-oxo-3-piperidyl]ethyl]amino]-1-(cyclopropylmethyl)-2-oxo-ethyl]-6-fluoro-1H-indole-2-carboxamide], the pEC50 is above 5.70.

With `COc1ccc(Cl)c2[nH]c(C(=O)N[C@@H](CC(C)(C)C)C(=O)N[C@H](C#N)C[C@@H]3CCNC3=O)cc12` [Compound 892], the pEC50 was above 5.70. Take `CCCNC(=O)OC(C#N)[C@H](C[C@@H]1CCNC1=O)NC(=O)[C@H](CC(C)C)NC(=O)c1cc2c(OC)cccc2[nH]1` (stereo partly drawn) [Compound 581]: the pEC50 was below 4.52. As for `CN1CCCC[C@]12CCN([C@H](CC1CC1)C(=O)N[C@H](C#N)C[C@@H]1CCNC1=O)C2=O` [Compound 273A, (2R)-N-[(1S)-1-cyano-2-[(3S)-2-oxopyrrolidin-3-yl]ethyl]-3-cyclopropyl-2-[(5R)-6-methyl-1-oxo-2,6-diazaspiro[4.5]decan-2-yl]propanamide], the pEC50 is below 4.52. Take `COc1cc(Cl)cc2[nH]c(C(=O)N[C@@H](CC(C)(C)C)C(=O)N[C@H](C#N)C[C@@H]3CCCNC3=O)cc12` [Compound 1149]: the pEC50 was above 5.70. On to `N#C[C@H](C[C@@H]1CCNC1=O)NC(=O)[C@H](CC1CC1)NC(=O)c1cc2c(OCCN3CCOCC3)cccc2[nH]1` [Compound 515, N-[(1S)-2-[[(1S)-1-cyano-2-[(3S)-2-oxopyrrolidin-3-yl]ethyl]amino]-1-(cyclopropylmethyl)-2-oxo-ethyl]-4-(2-morpholinoethoxy)-1H-indole-2-carboxamide], for which the pEC50 was above 5.70. In the case of `COc1cccc2[nH]c(C(=O)N[C@@H](CC3CC3)C(=O)N[C@@H](C#N)C[C@@H]3CCCNC3=O)cc12` (single isomer, unassigned) [491 (Isomer 2)], the pEC50 was below 4.52.

Turning to `COCCOCCOc1cccc2[nH]c(C(=O)N[C@@H](CC3CC3)C(=O)N[C@H](C#N)C[C@@H]3CCCNC3=O)cc12` [Compound 1057, N-[(1S)-2-[[(1S)-1-cyano-2-[(3S)-2-oxo-3-piperidyl]ethyl]amino]-1-(cyclopropylmethyl)-2-oxo-ethyl]-4-[2-(2-methoxyethoxy)ethoxy]-1H-indole-2-carboxamide], the pEC50 is above 5.70.
